Test results taken from BindingDB's records for patent US10266550 (The Florida International University Board of Trustees, 2019).

What follows are molecules tested against DNA topoisomerase 2-alpha (Homo sapiens, UniProt P11388) (assay: Human Topoisomerase IIalpha Decatenation Inhibition Assay).
Protocol: The samples were incubated for 15 minutes at 37° C. before the addition of 4 μL of a stop buffer containing 5% sarkosyl, 0.25% bromophenol blue, and 25% glycerol. The reactions were then analyzed by electrophoresis in 1% agarose gels containing […] ethidium bromide before being photographed under UV light.

Chain of DNA topoisomerase 2-alpha (P11388 whole entry): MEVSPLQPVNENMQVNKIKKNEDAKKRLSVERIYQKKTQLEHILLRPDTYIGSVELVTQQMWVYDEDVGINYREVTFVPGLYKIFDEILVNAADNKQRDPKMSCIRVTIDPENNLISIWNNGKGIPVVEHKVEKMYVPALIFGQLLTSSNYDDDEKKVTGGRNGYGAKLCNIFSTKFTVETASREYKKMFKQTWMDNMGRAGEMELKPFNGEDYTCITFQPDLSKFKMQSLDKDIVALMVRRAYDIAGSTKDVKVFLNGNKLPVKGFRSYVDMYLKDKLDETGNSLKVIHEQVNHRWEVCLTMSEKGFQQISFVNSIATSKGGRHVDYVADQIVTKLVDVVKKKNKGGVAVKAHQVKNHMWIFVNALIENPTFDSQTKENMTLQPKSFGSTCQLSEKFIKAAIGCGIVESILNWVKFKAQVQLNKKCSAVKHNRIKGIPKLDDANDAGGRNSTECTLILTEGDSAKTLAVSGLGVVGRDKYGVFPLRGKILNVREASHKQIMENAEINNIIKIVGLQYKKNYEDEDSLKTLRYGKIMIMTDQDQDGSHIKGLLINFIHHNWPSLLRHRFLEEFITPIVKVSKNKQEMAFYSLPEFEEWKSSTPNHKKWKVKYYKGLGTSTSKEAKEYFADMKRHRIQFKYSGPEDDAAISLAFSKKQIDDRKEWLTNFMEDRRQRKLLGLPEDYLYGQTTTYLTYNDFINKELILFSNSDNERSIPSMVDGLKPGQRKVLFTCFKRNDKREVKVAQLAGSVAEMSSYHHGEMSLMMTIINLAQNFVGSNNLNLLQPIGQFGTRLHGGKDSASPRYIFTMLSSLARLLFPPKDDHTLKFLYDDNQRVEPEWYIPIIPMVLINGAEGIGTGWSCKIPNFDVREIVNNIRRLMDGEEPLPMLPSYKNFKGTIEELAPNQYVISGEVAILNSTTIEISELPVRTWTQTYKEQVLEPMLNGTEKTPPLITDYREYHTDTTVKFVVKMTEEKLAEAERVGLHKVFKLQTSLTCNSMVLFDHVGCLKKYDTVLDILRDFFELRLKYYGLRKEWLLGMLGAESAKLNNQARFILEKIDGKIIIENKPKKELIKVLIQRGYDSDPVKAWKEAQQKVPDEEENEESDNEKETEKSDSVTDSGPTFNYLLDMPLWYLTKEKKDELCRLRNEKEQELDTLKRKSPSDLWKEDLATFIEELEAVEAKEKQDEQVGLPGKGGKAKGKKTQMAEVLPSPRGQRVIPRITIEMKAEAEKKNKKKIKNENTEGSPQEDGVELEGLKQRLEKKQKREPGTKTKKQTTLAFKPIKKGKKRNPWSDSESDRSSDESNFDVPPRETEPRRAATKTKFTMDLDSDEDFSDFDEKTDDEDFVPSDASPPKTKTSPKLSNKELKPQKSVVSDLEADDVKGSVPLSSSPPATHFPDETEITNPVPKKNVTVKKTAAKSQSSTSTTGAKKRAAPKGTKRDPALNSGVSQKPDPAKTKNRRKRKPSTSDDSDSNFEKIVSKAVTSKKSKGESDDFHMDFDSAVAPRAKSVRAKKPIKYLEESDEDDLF

Row | SMILES | IC50
1 | CN1CCN(c2c(F)cc3c(=O)c(C(=O)O)cn4c3c2Oc2cc(N)ccc2-4)CC1 [US10266550, Compound 11a] | 5.85 µM
2 | Nc1ccc2c(c1)Oc1c(N3CCNCC3)c(F)cc3c(=O)c(C(=O)O)cn-2c13 [US10266550, Compound 11b] | 2.93 µM
3 | N[C@H]1CCN(c2c(F)cc3c(=O)c(C(=O)O)cn4c3c2Oc2cc([N+](=O)[O-])ccc2-4)C1 [US10266550, Compound 16] | 2.93 µM
